Source: article PMC12287140, “Branched-chain amino acid catabolism initiates volatile synthesis in Gentiana triflora” (Planta, 2025)

What was measured:
GeBCAT1 = test system: T1, GeBCAT1; assay: deamination assay, LC-TOF-MS of PFBHA-derivatized keto acid; type: biochemical, Gentiana triflora; conditions: 120 mM alpha-ketoglutarate, 0.16 mM PLP, 4 mM DTT, 0.1 M Tris-HCl pH 8.0, 33 °C
T1 construct: open reading frame (390 aa, predicted mitochondrial transit peptide) in pEU-FLAG-GST-GW; FLAG-GST tag, no cleavage told; wheat cell-free synthesis, GST-purified
Source text: deamination assay, LC-TOF-MS of PFBHA-derivatized keto acid on GeBCAT1 | Km and Vmax values of recombinant GeBCAT1 and GeBCAT2 are shown for different substrates

GeBCAT2 = test system: T2, GeBCAT2; assay: as above; type: biochemical, Gentiana triflora; conditions: 120 mM alpha-ketoglutarate, 0.16 mM PLP, 4 mM DTT, 0.1 M Tris-HCl pH 8.0, 33 °C
T2 construct: open reading frame (411 aa, predicted plastid transit peptide) in pEU-FLAG-GST-GW; FLAG-GST tag, no cleavage told; wheat cell-free synthesis, GST-purified
Source text: deamination assay, LC-TOF-MS of PFBHA-derivatized keto acid on GeBCAT2 | Km and Vmax values of recombinant GeBCAT1 and GeBCAT2 are shown for different substrates

| Km (GeBCAT1) | Km (GeBCAT2) | SMILES |
| --- | --- | --- |
| 88 ± 40 µM | 310 ± 15 µM | CC[C@H](C)[C@H](N)C(=O)O [Ile] |
| 79 ± 15 µM | 4570 ± 320 µM | CC(C)[C@H](N)C(=O)O [Val] |
| 780 ± 280 µM | 650 ± 29 µM | CC(C)C[C@H](N)C(=O)O [Leu] |
